Activity calls are given as the source filed them.
Assays:
cells [1] = assay type: functional, cell-based
cells [2] = assay type: functional, cell-based; remark: listed apart in the source
[3] = biological target: T1, Oxysterols receptor LXR-beta (Homo sapiens, UniProt P55055); assay type: functional, cell-based;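 note: agonist activity at LXR measured by a cell-based luminescence readout across a dose range, run as a counterscreen for daf-12 agonists; HEK293 cells with Gal4-LXR fusion and GAL4-driven luciferase reporter; potency for activation of Gal4-LXR reporter so compounds are agonists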
T1 sequence (P55055 whole entry): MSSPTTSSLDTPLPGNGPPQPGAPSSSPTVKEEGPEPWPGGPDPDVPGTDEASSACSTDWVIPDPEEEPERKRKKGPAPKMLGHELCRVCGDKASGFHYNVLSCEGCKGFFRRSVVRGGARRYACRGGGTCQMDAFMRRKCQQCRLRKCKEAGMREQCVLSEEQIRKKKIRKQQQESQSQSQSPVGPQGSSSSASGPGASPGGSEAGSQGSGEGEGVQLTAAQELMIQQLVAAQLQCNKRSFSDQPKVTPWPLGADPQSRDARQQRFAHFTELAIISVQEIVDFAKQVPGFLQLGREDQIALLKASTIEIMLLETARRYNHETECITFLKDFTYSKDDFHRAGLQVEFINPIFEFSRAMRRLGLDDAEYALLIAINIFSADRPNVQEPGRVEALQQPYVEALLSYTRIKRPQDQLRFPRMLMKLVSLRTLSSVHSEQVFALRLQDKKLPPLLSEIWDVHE

[4] = activation of miR-122 Renilla sensor silencing – cell-based, Huh7 psiCHECK-miR122, Renilla luciferase, cherry-picked, dose response (AID 651956); assay type: functional;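 note: huh7 hepatoma cells stably carrying a psiCHECK-2 miR-122 sensor plasmid; renilla luciferase signal reporting endogenous miR-122 activity after 48 h compound exposure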
[5] = blockers of HIV-1 envelope-mediated cell-cell fusion – cherry-pick, dose response (AID 652057); assay type: functional, cell-based
[6] = viability loss in CEM21 cells – cell-based, CellTiter-Glo luminescence, cherry-picked, cytotoxicity control for viral fusion inhibitor project, dose response (AID 652042); assay type: functional;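 note: potency for signal decrease meaning cytotoxicity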
[7] = HIV-1 AD8 envelope cell-cell fusion blockers – cherry-pick, dose response (AID 652062); assay type: functional, cell-based;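 note: luciferase signal from cell-cell fusion driven by HIV-1 clade B AD8 Env; potency is for inhibitors of fusion seen as a drop in luminescence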
[8] = biological target: T2, Nuclear receptor subfamily 0 group B member 1 (Homo sapiens, UniProt P51843); assay type: functional, cell-based;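 note: HEK293T cells transfected with SF-1 and DAX-1 plus StAR promoter luciferase reporter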
T2 sequence (P51843 whole entry): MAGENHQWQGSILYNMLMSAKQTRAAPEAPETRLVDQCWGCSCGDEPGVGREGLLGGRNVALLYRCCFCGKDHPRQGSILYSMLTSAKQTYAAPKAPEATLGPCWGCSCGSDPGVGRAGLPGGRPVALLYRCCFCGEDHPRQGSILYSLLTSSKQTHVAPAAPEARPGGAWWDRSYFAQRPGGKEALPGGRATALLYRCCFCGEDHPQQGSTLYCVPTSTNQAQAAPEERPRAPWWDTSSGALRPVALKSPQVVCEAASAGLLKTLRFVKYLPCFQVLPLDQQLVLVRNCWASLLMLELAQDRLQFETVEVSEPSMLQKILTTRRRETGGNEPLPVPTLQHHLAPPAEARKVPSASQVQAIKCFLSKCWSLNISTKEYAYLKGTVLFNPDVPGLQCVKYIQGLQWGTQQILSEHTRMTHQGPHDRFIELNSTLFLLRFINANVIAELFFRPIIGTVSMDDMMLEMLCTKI

cells [9] = assay type: functional, cell-based; remark: listed apart in the source
[10] = biological target: T3, Low molecular weight phosphotyrosine protein phosphatase (Homo sapiens, UniProt P24666); assay type: functional; conditions: read-out: IC50_Mean
T3 sequence (P24666 whole entry): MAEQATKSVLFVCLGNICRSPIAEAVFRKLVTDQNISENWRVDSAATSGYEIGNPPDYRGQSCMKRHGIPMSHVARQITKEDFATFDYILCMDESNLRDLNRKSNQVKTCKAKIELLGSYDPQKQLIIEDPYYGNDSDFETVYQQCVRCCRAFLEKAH

[11] = biological target: T3, Low molecular weight phosphotyrosine protein phosphatase; assay type: functional; conditions: read-out: IC50_Mean; remark: listed apart in the source
[12] = HGIII-sPLA2 enzyme inhibition potency – biochemical, QFRET, IC50, dose response (AID 743457);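 note: green fluorescence rise as the enzyme cleaves BODIPY PC-A2 in liposomes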
[13] = biological target: Protein disulfide-isomerase (Homo sapiens, UniProt P07237); assay: inhibition of PDI-mediated insulin reduction – biochemical, turbidity, dry powder samples, set 2, confirmation (AID 652146)
Protein disulfide-isomerase, sequence (P07237 whole entry): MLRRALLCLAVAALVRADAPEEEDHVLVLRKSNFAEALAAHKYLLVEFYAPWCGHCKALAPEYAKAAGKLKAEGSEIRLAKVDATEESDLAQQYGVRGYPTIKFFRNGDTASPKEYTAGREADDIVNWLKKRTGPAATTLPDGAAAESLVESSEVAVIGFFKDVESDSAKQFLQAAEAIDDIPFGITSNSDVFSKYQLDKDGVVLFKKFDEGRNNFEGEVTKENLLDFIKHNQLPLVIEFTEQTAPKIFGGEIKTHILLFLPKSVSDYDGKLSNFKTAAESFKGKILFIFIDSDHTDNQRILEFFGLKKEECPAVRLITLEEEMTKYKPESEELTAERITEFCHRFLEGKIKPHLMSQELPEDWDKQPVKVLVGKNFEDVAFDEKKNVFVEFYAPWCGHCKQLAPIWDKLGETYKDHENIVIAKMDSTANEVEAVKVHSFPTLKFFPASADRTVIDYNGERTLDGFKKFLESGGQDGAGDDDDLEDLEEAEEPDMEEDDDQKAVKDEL

Fatty acid synthase [14] = biological target: T4, Fatty acid synthase (Homo sapiens, UniProt P49327); assay: inhibition of human FAS-TE enzyme activity – biochemical, endpoint fluorescence intensity, uHTS hits, dose response (AID 624327); assay type: functional;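 note: fluorescence from hydrolysis of an O-methyl fluorescein acyl ester substrate by the enzyme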
T4 sequence (P49327 whole entry): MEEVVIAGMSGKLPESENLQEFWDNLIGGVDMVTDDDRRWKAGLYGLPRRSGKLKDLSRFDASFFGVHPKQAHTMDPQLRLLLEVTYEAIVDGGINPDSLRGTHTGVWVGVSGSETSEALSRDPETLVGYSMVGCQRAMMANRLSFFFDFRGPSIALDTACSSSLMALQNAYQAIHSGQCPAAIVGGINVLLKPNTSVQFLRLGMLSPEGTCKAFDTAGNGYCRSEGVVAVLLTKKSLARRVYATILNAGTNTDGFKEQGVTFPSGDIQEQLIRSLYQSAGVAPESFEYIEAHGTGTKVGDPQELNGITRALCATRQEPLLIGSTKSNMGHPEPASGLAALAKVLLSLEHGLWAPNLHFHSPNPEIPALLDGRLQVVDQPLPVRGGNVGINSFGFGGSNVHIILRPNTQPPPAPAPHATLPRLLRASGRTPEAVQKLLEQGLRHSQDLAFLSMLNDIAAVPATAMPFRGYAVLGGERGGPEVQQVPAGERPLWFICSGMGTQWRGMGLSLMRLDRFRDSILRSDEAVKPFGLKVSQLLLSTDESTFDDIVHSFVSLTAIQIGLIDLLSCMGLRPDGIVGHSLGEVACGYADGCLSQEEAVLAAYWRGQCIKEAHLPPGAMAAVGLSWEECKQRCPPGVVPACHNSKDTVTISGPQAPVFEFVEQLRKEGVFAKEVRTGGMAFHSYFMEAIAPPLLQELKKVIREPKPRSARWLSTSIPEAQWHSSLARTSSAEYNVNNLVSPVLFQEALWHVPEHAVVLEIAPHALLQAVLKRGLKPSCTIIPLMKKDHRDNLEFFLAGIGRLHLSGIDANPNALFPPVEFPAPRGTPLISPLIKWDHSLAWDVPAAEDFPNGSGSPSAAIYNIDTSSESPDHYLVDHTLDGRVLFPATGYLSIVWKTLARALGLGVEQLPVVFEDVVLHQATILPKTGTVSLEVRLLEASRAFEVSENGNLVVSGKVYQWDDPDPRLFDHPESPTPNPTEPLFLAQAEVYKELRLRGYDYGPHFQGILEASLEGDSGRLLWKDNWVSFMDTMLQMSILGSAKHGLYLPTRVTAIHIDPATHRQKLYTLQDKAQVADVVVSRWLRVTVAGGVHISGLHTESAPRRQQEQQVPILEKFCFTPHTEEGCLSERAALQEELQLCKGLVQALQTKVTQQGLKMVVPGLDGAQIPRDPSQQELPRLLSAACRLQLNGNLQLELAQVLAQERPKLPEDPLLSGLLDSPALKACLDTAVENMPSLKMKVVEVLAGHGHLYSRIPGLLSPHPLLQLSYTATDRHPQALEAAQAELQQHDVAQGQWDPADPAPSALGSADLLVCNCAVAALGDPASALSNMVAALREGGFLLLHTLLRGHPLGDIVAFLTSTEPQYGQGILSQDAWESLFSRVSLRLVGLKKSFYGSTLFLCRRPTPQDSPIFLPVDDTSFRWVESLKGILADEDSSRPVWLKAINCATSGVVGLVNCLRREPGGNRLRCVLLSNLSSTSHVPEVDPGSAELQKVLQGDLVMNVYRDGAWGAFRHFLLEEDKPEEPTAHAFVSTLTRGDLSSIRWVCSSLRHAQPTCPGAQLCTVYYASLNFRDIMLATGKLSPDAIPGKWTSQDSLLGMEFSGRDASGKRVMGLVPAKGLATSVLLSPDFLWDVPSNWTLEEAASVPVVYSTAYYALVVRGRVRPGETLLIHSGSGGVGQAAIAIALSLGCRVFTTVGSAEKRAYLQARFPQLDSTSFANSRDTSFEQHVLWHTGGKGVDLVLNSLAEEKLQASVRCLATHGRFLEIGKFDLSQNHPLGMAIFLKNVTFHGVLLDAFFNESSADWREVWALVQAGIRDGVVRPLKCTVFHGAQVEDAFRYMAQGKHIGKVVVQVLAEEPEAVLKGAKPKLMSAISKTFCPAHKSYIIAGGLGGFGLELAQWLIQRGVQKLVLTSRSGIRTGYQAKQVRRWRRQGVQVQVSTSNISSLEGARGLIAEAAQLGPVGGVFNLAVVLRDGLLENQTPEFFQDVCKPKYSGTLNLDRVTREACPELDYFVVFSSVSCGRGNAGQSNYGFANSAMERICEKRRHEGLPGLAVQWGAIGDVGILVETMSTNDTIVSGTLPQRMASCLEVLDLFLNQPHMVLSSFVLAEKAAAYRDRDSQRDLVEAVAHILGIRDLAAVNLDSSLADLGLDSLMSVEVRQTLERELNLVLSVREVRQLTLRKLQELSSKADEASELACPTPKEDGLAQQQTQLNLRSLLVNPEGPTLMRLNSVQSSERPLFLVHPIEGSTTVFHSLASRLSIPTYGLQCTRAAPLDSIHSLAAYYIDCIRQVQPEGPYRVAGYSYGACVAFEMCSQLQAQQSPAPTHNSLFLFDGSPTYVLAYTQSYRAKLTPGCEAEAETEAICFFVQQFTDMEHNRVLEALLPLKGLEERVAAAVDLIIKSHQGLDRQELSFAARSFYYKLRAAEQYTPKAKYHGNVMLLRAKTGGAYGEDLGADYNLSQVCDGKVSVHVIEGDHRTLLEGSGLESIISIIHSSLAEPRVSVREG

[15] = biological target: T5, Probable nicotinate-nucleotide adenylyltransferase (Staphylococcus aureus (strain N315), UniProt P65502); assay type: functional, Staphylococcus aureus subsp. aureus N315; conditions: read-out: IC50_Mean;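 for IC50 Mean: confirmatory dose-response retesting of NadD inhibitor hits first found in an ultra-high-throughput screen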
T5 sequence (P65502 whole entry): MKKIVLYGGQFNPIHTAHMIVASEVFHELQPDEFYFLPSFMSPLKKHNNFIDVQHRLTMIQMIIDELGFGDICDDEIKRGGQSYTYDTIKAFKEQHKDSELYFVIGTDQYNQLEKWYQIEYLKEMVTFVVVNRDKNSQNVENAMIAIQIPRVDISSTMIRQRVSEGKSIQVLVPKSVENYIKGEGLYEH

[16] = biological target: T5, Probable nicotinate-nucleotide adenylyltransferase; assay type: functional, Staphylococcus aureus subsp. aureus N315
Fatty acid synthase [17] = biological target: T4, Fatty acid synthase; assay: inhibition of human FAS-TE enzyme activity – biochemical, kinetic fluorescence intensity, dose response (AID 624326); assay type: functional;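 note: rate of fluorescence rise from hydrolysis of a fluorogenic O-methyl fluorescein ester substrate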
[18] = viability of uninfected HEp-2 cells – cell-based, HTS, cytotoxicity control for RSV inhibitor project, dose response (AID 2410); assay type: functional; conditions: human respiratory syncytial virus
fMet-Leu-Phe receptor = fMet-Leu-Phe receptor (Homo sapiens, UniProt P21462); assay: formyl peptide receptor binders – dose response (AID 519); assay type: functional
fMet-Leu-Phe receptor, sequence (P21462 whole entry): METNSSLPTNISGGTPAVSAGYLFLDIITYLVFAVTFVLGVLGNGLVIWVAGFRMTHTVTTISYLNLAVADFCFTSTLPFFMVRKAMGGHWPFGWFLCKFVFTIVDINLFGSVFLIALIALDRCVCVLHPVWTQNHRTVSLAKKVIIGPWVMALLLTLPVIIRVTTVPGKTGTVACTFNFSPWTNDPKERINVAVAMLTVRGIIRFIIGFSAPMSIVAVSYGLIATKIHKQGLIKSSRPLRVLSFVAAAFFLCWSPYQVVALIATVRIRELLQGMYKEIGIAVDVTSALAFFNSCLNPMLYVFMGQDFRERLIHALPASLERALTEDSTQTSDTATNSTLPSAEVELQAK

[19] = toxicity toward HepG2 liver cells – cell-based, plate reader, cherry-pick, antagonist series, cytotoxicity control, dose response (AID 743416); assay type: functional
[20] = viability loss in HEK293 cells – cell-based, plate reader, cherry-picked samples, cytotoxicity control, dose response (AID 743446); assay type: functional
[21] = microbe, parasite or virus in culture; assay type: functional; conditions: Mycobacterium tuberculosis
[22] = A549 cell cytotoxicity, dose response, cytotoxicity control, plate reader, cherry-pick, antagonist series (AID 743412); assay type: functional, cell-based
[23] = blockade of melanocortin 4 receptor signaling – cell-based, plate reader, cherry pick, counter-screen for LGR2 antagonist project, dose response (AID 743444); assay type: functional;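 note: transfected HEK 293 cells stimulated with alpha-MSH peptide; potency of inhibitors of the alpha-MSH evoked signal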
[24] = blockers of bursicon-stimulated LGR2 cAMP reporter – cell-based, HEK293, CRE-luciferase reporter, cherry pick, set 2, dose response (AID 743343); assay type: functional;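 note: transfected cells were stimulated with diluted bursicon conditioned medium after compound addition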
[25] = biological target: T6, Microphthalmia-associated transcription factor (Homo sapiens, UniProt O75030); assay: reducers of TRPM1 reporter luminescence, concentration series – cell-based, SK-MEL-5, cherry-picked, set 3, MITF inhibitor project, dose response (AID 493073); assay type: functional;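 note: SK-MEL-5 melanoma cells with luciferase driven by the MITF target TRPM1 promoter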
T6 sequence (O75030 whole entry): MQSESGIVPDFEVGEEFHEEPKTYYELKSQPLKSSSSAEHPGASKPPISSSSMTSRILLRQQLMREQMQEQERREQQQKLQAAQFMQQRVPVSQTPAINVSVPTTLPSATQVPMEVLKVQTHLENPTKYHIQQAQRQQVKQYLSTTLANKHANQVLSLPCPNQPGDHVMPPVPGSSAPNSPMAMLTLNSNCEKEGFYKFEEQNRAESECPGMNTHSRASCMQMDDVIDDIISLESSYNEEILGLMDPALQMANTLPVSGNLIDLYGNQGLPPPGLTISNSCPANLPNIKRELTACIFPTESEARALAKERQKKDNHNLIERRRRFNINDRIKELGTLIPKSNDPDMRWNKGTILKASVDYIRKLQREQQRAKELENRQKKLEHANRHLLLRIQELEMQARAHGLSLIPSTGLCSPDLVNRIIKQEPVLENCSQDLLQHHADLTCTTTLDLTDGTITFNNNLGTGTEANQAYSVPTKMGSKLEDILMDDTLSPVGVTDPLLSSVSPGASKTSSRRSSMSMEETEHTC

Protein skinhead-1 = biological target: T7, Protein skinhead-1 (Caenorhabditis elegans, UniProt P34707); assay type: functional
T7 sequence (P34707 whole entry): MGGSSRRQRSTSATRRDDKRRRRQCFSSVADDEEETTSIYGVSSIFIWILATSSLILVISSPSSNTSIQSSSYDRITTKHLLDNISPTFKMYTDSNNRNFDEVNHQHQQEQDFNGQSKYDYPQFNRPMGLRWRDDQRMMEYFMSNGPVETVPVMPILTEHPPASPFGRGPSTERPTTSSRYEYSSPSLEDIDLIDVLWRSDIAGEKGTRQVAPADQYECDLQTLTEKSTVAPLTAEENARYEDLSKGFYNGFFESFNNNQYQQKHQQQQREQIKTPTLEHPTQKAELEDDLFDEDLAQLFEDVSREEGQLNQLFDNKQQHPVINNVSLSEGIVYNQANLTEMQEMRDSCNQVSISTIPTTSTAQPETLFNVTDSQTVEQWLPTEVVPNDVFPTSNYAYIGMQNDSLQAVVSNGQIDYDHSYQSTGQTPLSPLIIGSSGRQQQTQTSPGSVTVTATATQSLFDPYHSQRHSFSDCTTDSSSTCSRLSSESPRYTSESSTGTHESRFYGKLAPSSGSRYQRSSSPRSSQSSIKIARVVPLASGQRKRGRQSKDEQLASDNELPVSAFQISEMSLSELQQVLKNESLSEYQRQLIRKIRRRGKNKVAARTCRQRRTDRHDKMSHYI

[26] = biological target: Tyrosine-protein phosphatase non-receptor type 11 (Homo sapiens, UniProt Q06124); assay: PTPN11 enzyme inhibitors – biochemical, selectivity assay for STEP inhibitor project, dose response (AID 602367); assay type: functional; conditions: read-out: IC50_Mean
Tyrosine-protein phosphatase non-receptor type 11, sequence (Q06124 whole entry): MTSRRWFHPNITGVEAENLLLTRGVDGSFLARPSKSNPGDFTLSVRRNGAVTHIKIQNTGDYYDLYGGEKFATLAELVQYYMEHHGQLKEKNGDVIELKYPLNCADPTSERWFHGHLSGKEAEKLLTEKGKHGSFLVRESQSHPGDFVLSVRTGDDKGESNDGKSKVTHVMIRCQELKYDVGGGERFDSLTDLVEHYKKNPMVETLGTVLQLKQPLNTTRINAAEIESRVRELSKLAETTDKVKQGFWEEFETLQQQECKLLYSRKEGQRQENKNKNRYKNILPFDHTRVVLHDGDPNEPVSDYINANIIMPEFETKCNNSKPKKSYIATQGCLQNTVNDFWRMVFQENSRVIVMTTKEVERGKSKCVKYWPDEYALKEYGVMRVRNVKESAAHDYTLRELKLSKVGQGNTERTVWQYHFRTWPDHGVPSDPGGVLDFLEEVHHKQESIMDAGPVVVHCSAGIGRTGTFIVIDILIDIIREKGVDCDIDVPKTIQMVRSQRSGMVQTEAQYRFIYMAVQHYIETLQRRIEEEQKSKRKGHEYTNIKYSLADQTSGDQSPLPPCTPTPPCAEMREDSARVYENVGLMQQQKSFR

[27] = biological target: Tyrosine-protein phosphatase non-receptor type 5 (Homo sapiens, UniProt P54829); assay: PTPN5 enzyme inhibition – biochemical, fluorescence intensity, uHTS hits, confirmation (AID 602372); assay type: functional; conditions: read-out: IC50_Mean
[28] = biological target: Dual specificity protein phosphatase 3 (Homo sapiens, UniProt P51452); assay: VHR phosphatase inhibition, dose response, selectivity assay for STEP inhibitor project, biochemical (AID 602374); assay type: functional; conditions: read-out: IC50_Mean
[29] = viability loss in THP-1 monocytes – THP-1 cells, cytotoxicity control for Vif-APOBEC3G degradation inhibitor project, dose response (AID 1117359); assay type: functional; conditions: THP-1
[30] = biological target: DNA (cytosine-5)-methyltransferase 1 (Homo sapiens, UniProt P26358); assay: inhibition of DNA methylation by DNMT1 – biochemical, fluorescent molecular beacon, confirmation (AID 602386); assay type: functional
Genome polyprotein = Genome polyprotein (dengue virus type 2, UniProt P29990); assay: flavivirus cap methylation enzyme inhibition – biochemical, confirmation dose response, primary screen (AID 588689); assay type: functional
Genome polyprotein, sequence (P29990 2492-3391 limits assumed): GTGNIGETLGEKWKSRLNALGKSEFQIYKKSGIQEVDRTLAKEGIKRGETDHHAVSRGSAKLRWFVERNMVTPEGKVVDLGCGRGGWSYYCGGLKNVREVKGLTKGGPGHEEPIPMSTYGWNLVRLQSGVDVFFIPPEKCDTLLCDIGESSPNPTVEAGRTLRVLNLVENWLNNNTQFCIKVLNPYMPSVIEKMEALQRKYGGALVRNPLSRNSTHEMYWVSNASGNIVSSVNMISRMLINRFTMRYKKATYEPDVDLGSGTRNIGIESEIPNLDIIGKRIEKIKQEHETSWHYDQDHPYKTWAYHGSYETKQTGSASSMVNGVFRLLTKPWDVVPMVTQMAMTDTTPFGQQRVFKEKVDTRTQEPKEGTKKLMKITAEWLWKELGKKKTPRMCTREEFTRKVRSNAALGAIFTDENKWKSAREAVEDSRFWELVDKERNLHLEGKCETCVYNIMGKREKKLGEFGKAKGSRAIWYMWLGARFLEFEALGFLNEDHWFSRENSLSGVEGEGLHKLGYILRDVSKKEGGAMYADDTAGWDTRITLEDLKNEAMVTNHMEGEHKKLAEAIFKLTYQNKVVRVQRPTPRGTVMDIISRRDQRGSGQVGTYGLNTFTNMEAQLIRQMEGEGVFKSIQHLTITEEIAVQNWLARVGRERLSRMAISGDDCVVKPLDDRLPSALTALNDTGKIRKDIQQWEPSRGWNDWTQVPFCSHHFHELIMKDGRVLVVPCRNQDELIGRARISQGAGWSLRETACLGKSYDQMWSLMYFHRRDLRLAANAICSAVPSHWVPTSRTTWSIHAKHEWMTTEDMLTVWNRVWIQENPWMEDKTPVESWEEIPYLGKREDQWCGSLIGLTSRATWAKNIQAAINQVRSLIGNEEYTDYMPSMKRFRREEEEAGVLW

[31] = blockers of HIV-1 ZM109 envelope-driven cell-cell fusion – HeLa effector, CEM target cells, luciferase, cherry-pick, dose response (AID 652058); assay type: functional, cell-based;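 note: luciferase signal from HIV-1 Env mediated cell-cell fusion of effector and target cells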
[32] = off-target signal loss in HeLa-CEM21 co-culture – HeLa F-luc CTL cells, cherry-picked, counter-screen for HIV-1 Env fusion inhibitor project, dose response (AID 652040); assay type: functional, cell-based;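 note: potency for signal decrease marking cytotoxic or nonspecific inhibition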

## O=C(NCC1CCCO1)c1cc(-c2ccccc2F)no1 (stereo unspecified)
Cells [1]
  EC50: 43.8 µM (active)
Cells [2]
  EC50: 190 µM (active)
[3]
  EC50: > 67.5 µM (inactive)

## c1ccc([C@H]2CN3C(=N2)Sc2ccccc23)cc1
[3]
  EC50: > 67.1 µM (inactive)

## CCNC(=O)C[C@@H]1CC[C@@H]2[C@@H](COc3ccc(NC(=O)C4CCCCC4)cc3C(=O)N2C)O1
[4]
  AC50: 33.4 µM (active)

## C[C@H](CO)N1C[C@H](C)[C@H](CN(C)S(=O)(=O)c2ccccc2)Oc2ccc(NC(=O)Nc3ccc4c(c3)OCO4)cc2CC1=O
[5]
  AC50: < 260 nM (active)
[6]
  AC50: 58.4 µM (active)
[7]
  AC50: 1.15 µM (active)

## COC(=O)C1CCC(=O)N1C(c1ccc(OC)cc1)c1cc(OC)c(OC)c(OC)c1 (stereo unspecified)
[8]
  IC50: > 67.5 µM (inactive)
Cells [9]
  IC50: > 67.5 µM (inactive)

## O=C1NC(=O)N(CCc2ccc(F)cc2)C(=O)/C1=C\NCc1ccc2c(c1)OCO2
[10]
  IC50: > 80 µM (inactive)
[11]
  IC50: 3.2 µM (active)

## O=C(NN=C(S)NCc1ccccc1)c1ccccc1OC(F)F
[12]
  IC50: > 122 µM (inactive)

## CCOC(=O)C1(CCOC)CCCN(Cc2ccc(Cl)cc2)C1 (stereo unspecified)
[13]
  AC50: > 30 µM (inactive)

## O=[N+]([O-])c1ccc(Cl)c(S(=O)(=O)Nc2cccc(-c3ccc(N4CCCC4)nn3)c2)c1
Fatty acid synthase [14]
  IC50: 8.75 µM (active)
[15]
  IC50: 23.5 µM (active)
[16]
  IC50: 6.57 µM (active)
Fatty acid synthase [17]
  IC50: 7.65 µM (active)
[18]
  CC50: 14.7 µM (active)

## Cc1c(C)c2cc(Cl)c(O)c(CN3CCCCC3)c2oc1=O
fMet-Leu-Phe receptor
  Ki: > 66.7 µM (inactive)

## CC1(C)CC(NC(=O)c2ccc(Cl)c(S(=O)(=O)N(Cc3ccccc3)c3ccccc3)c2)CC(C)(C)N1
[19]
  AC50: 8.14 µM (active)
[20]
  AC50: 15.7 µM (active)
[21]
  CC50: 12.7 µM (active)
[22]
  AC50: 7.96 µM (active)
[23]
  AC50: 29.4 µM (active)
[24]
  AC50: 19.4 µM (active)
[25]
  AC50: 10.3 µM (active)

## COc1cccc(-c2cc(C(=O)Nc3nc4ccccc4s3)c3ccccc3n2)c1
Protein skinhead-1
  IC50: > 100 µM (inactive)
[26]
  IC50: 8.43 µM (active)
[27]
  IC50: 23.2 µM (inactive)
[28]
  IC50: 1.62 µM (active)

## O=C1C=C(N2CC2)c2ccccc2C1=O
[29]
  CC50: 32.7 µM (active)
Protein skinhead-1
  IC50: > 100 µM (inactive)
[30]
  IC50: 1.87 µM (active)
Genome polyprotein
  IC50: 29.7 µM (active)

## CCOC(=O)Cn1nnnc1CN(CCc1ccccc1)Cc1cc2cc(CC)ccc2nc1O
[31]
  AC50: 1.17 µM (active)
[32]
  AC50: 6.05 µM (active)
[5]
  AC50: 2970 nM (active)
[6]
  AC50: 54.2 µM (active)
[7]
  AC50: 29.3 µM (active)

## Cc1ccc(Nc2nc(C3CC3)cs2)cc1
fMet-Leu-Phe receptor
  Ki: 43.1 µM (inactive)
